Experimental data as given in publication PMC8875392, “Design and Characterization of Myristoylated and Non-Myristoylated Peptides Effective against Candida spp. Clinical Isolates” (International Journal of Molecular Sciences, 2022).
Values after ≈ are worked out from the molar mass of the structure shown. Like-named read-outs stand apart in the source and are kept apart here. Where a SMILES comes first, the peptide text is derived from it. The star is where a group is joined. Myristoyl = CCCCCCCCCCCCCC(=O)*

Tests used:
[1] = test system: rabbit erythrocytes
Description: The hemolytic assay was performed on rabbit erythrocytes (Rockland) maintained in Alsever’s solution (Innovative Research). Briefly, after the removal of Alsever’s solution, the erythrocytes were resuspended in PBS and counted in a hemocytometer. A suspension of 5,000,000 red blood cells was incubated with four dilutions (from 5 µm to 50 µm) of the six peptides in a 96-well microplate. As a negative control, erythrocytes were incubated without the peptides, while as a positive control, erythrocyte was added with triton 10% v/v. The plate was incubated at 37 °C for 2 h and subsequently centrifuged at 1200 rpm × 3 min to separate the pellet from the supernatant. The absorbance of the supernatant was measured at 492 nm. Each point was made in triplicate. The relative OD compared to the positive control defined the percentage of hemolysis [71]. Statistical analysis was performed using two-way ANOVA analysis followed by Bonferroni’s post-test.

[2] = test system: C. albicans clinical isolates; assay type: cell-based, Candida albicans; settings: 16 h
Description: The antifungal activity of AMPs was determined against 50 clinical isolates, 10 for each of the following Candida species: C. albicans, C. tropicalis, C. glabrata, C. parapsilosis, and C. auris. The latter were derived from patients with positive blood cultures in four hospitals in India, with known resistance profiles to fluconazole, voriconazole, and echinocandins. Yeast cells were grown in Brain Heart Infusion (BHI) medium (Sigma-Aldrich, Gillingham, UK) for 16 h at 37 °C in a 150-rpm orbital shaker. Cells were then sub-inoculated in a fresh BHI medium and grown to an optical density (OD) of 0.3. The turbidity of the inoculum was adjusted to 0.5 McFarland and diluted 1:500 in RPMI 1640 broth, corresponding to around […].
Minimal inhibitory concentrations (MICs) were determined by Broth microdilution susceptibility tests, according to The Clinical and Laboratory Standards Institute (CLSI) international guidelines. A fungal suspension of 0.5 MacFarland was diluted 1:500 in RPMI 1640 broth and incubated in 96 multi-well plates containing AMPs at different concentrations ranging from 0.125 to 256 μg/mL. In this range of concentration, lipopeptides were completely soluble. […] The MIC90 represents the value at which ≥90% of the strains within a test population were inhibited.

[3] = Membrane partition, Trp-1 fluorescence upon titration with LUVs; assay type: binding; settings: for KX (mole fraction partition constant): peptide 1.0 μM, 20 mM phosphate pH 7.4, 150 mM NaCl, 0.8 mM EDTA, 298 K, Trp fluorescence, quadruplicate; for ΔG: ΔG = −RT lnKx; for Selectivity Ratio: ratio between partition constants in anionic (POPC/POPG) and zwitterionic (POPC) membranes
Description: To quantify the interaction of different lipidated and non-lipidated peptides with membrane mimetic systems, we measured the intrinsic fluorescence of Trp-1 upon partition with LUVs (large unilamellar vesicles) of different compositions. Briefly, the mixtures of POPC/POPG (70%/30% w/w) LUVs were used to mimic anionic membranes and POPC only to mimic zwitterionic membranes. […] The mole fraction partition constants Kx were calculated from the partition isotherms as previously described. Figure 2 reports the partition isotherms for the titration of myristoylated and non-myristoylated peptides with POPC and POPC/POPG vesicles.
The values of Kx for all peptides are reported in Table 2 together with ΔG values, calculated using the expression ΔG = −RT lnKx, and the selectivity ratio defined as the ratio between partition constants determined in anionic and zwitterionic membranes. Higher values of the selectivity ratio represent a preference of the peptide for anionic vesicles, while lower values indicate a preference for the zwitterionic one.
The lipids POPC (1-palmitoyl-2-oleoyl-sn-glycero-3-phosphocholine) and POPG (1-palmitoyl-2-oleoyl-sn-glycero-3-phosphoglycerol) were purchased from Avanti Polar Lipids (Alabaster, AL, USA) and used without further purification. LUVs (Large Unilamellar Vesicles) were prepared as previously reported. Briefly, appropriate amounts of lipids were dissolved in chloroform/methanol 9:1. The solvent was then removed by rotary evaporation and samples were placed overnight under a high vacuum. The lipid film was then hydrated by adding 1 mL of buffer (20 mM phosphate buffer at pH 7.4 with 150 mM NaCl and 0.8 mM EDTA) and then subjected to 5 freeze–thaw cycles and vortexed. The multilamellar vesicles (MLVS) were extruded through a polycarbonate membrane with pores of 100 nm by an Avanti polar mini extruder, and the obtained LUVs were used within 48 h of preparation. LUVs were composed of 100% POPC and a 70%/30% (w/w) combination of POPC/POPG. The final concentration of the lipid was 10 mM.
All the steady-state fluorescence measurements were carried out using a Perkin Elmer LS55 fluorescence spectrophotometer. All the experiments were conducted at 298 K in a thermostatic cell holder and in 20 mM phosphate buffer at pH 7.4 containing 0.8 mM EDTA and 150 mM NaCl unless otherwise specified.
Since all peptides contain tryptophan, fluorescence spectroscopy is an appropriate tool for studying these molecules. Peptide partitioning between buffer and lipid vesicles was monitored by measuring the increase in tryptophan fluorescence upon the addition of LUVs. Trp fluorescence spectra were recorded with λexc = 295 nm and scanning the emission between 305 and 400 nm. Measurements were carried out with a cross-oriented configuration of polarizers (polem = 0° and polexc = 90°). Briefly, a 1.0 μM solution of the peptide was titrated with LUVs of different compositions (POPC 100% and 70%/30% POPC/POPG) as previously described. The background effects of vesicles and buffer were subtracted from each spectrum. All the fluorescence emissions were corrected for dilution. Mole fraction partition coefficients Kx were calculated from the fraction of the partitioned peptide fp as previously described. The fraction of the partitioned peptide fp is given by the following equation [53] (6) fp=Kx[L]/[W]+Kx[L] where Kx is the mole fraction partition constant, and [L] and [W] are the molar concentrations of lipids and water, respectively.

[4] = test system: Candida auris; test: In vivo peptide efficacy in Galleria mellonella larvae infected with C. auris; settings: larvae infected with Candida auris 10^7 CFU, groups of ten, peptide 640 µg/mL injected at the same time, 30 °C
Description: (§1) Multidrug-resistant C. auris was chosen as a representative species for in vivo studies. […] Groups of ten G. mellonella larvae were infected with C. auris and treated with the Pep-B and Myr-B peptides at a concentration of 640 µg/mL (about 400 µM).
(§2) Ten larvae (250–320 mg each) were selected at random for each step in the procedure. Any larvae with darkening of the cuticle were discarded. The test compounds and yeast were injected into the hemocoel in water buffer through the last left proleg (Insumed 30G Pic, Italy, syringe volume 0.5 mL, needle size 30G). The larvae were incubated in the dark for 3 days, and mortality was recorded daily.
An infective dose of yeast Candida auris was determined by injecting groups of ten larvae with a suspension at 10^5, 10^6, 10^7, and 10^8 colony-forming units (CFU) per injection. The larvae were incubated for 3 days at 30 °C. An infective dose was defined as the one that caused an immune response, recognizable by the darkening of the cuticle and able to kill approximately 50% of larvae after 24 h.
(§3) For the peptide efficacy experiment, ten larvae were injected into the last left proleg with a pre-determined infective dose of yeast and the dose of peptides at the same time in a final volume of 10 μL and incubated at 30 °C. Each step in the procedure included six groups of 10 larvae: C. auris-infected larvae (10^7 CFU), infected and treated larvae with peptide B (640 μg/mL), infected and treated larvae with peptide Myr-B (640 μg/mL), treated larvae with peptide B (640 μg/mL), treated larvae with peptide Myr-B (640 μg/mL), and vehicle-injected control (water). The mortality was recorded daily for 3 days.

[5] = test system: Galleria mellonella larvae; test: In vivo peptide toxicity in Galleria mellonella model; settings: uninfected larvae, groups of ten, peptide 640 µg/mL, single injection, 30 °C
Description: as §1, §2, §3

SMILES | hemolysis ([1]; 5 µM) [%] | MIC90 [2] [µg/mL] | MIC (Range) [2] [µg/mL] | KX (mole fraction partition constant) ([3]; POPC LUVs) | ΔG ([3]; POPC LUVs) [kcal/mol] | KX (mole fraction partition constant) ([3]; POPC/POPG 70%/30% LUVs) | ΔG ([3]; POPC/POPG LUVs) [kcal/mol] | Selectivity Ratio [3] | hemolysis ([1]; 50 µM) [%] | MIC [2] [µg/mL] | Peptide efficacy, DAY 1 Alive [4] | Peptide efficacy, DAY 1 Dead [4] | Peptide efficacy, DAY 2 Alive [4] | Peptide efficacy, DAY 2 Dead [4] | Peptide efficacy, DAY 3 Alive [4] | Peptide efficacy, DAY 3 Dead [4] | Peptide toxicity, DAY 1 Dead [5] | Peptide toxicity, DAY 2 Dead [5] | Peptide toxicity, DAY 3 Dead [5]
CCCCCCCCCCCCCC(=O)N[C@@H](Cc1c[nH]c2ccccc12)C(=O)N[C@@H](Cc1ccccc1)C(=O)NCC(=O)N[C@@H](CCCCN)C(=O)N[C@@H](CC(C)C)C(=O)N[C@@H](Cc1ccc(O)cc1)C(=O)N[C@@H](CCCNC(=N)N)C(=O)NCC(=O)N[C@H](C(=O)N[C@H](C(=O)N[C@@H](CCCCN)C(=O)O)[C@@H](C)O)[C@@H](C)CC [Myr-A] (Myristoyl-WFGKLYRGITK-OH; C-terminus assumed) | 0.1 | 16 (≈ 10.1 µM) | 8 to 16 | (1.03 ± 0.04) × 10^5 | -6.831 | (4.3 ± 0.8) × 10^5 | -7.684 | 4.17 | – | – | – | – | – | – | – | – | – | – | –
CCCCCCCCCCCCCC(=O)N[C@@H](Cc1c[nH]c2ccccc12)C(=O)N[C@H](C(=O)N[C@H](C(=O)N[C@@H](CCCCN)C(=O)N[C@@H](CCCCN)C(=O)N[C@H](C(=O)N[C@@H](CCCCN)C(=O)NCC(=O)N[C@@H](CC(C)C)C(=O)N[C@@H](CC(C)C)C(=O)N[C@@H](CCCCN)C(=O)O)C(C)C)C(C)C)C(C)C [Myr-C] (Myristoyl-WVVKKVKGLLK-OH; C-terminus assumed) | – | 32 (≈ 21.2 µM) | – | (4.9 ± 0.3) × 10^5 | -7.753 | (1.2 ± 0.2) × 10^6 | -8.293 | 2.45 | 28.5 | 32 (≈ 21.2 µM) | – | – | – | – | – | – | – | – | –
CCCCCCCCCCCCCC(=O)N[C@@H](Cc1c[nH]c2ccccc12)C(=O)N[C@@H](CCCNC(=N)N)C(=O)NCC(=O)N[C@H](C(=O)N[C@H](C(=O)N[C@@H](CCCCN)C(=O)N[C@H](C(=O)N[C@H](C(=O)N[C@@H](CCCCN)C(=O)N[C@@H](CCCCN)C(=O)N[C@H](C(=O)O)C(C)C)C(C)C)C(C)C)[C@@H](C)O)[C@@H](C)CC [Myr-B] (Myristoyl-WRGITKVVKKV-OH; C-terminus assumed) | – | 16 (≈ 10.5 µM) | – | (4.7 ± 0.6) × 10^5 | -7.737 | (1.7 ± 0.2) × 10^6 | -8.499 | 3.62 | – | 16 (≈ 10.5 µM) | 8 | 2 | 3 | 7 | 3 | 7 | 1 | 1 | 1
